Assay results from patent publication US9850283B2, “Macrocyclic inhibitors of the PD-1/PD-L1 and CD80(B7-1)/PD-L1 protein/protein interactions” (BRISTOL-MYERS SQUIBB COMPANY, priority 2013, dated 2017).
Like-named read-outs stand apart in the source and are kept apart here. Starred links: 1 amine or outer side, 2 acyl side, 3 side chain; linkers in the order of their positions; H or OH if unused. Positions of bridges follow the written chain, without caps; N, C: chain ends. Non-standard residues stand in square brackets, D forms with d. Residues, ends and D or L forms follow the SMILES beside them. ξ: configuration not given here. Pro(trans-4-cHex) = O=C(O)[C@@H]1C[C@@H](C2CCCCC2)CN1; Phe(3,4,5-F3) = N[C@@H](Cc1cc(F)c(F)c(F)c1)C(=O)O; Phe(F5) = N[C@@H](Cc1c(F)c(F)c(F)c(F)c1F)C(=O)O; Phe(4-CH2NH2) = NCc1ccc(C[C@H](N)C(=O)O)cc1; Phe(4-Cl) = N[C@@H](Cc1ccc(Cl)cc1)C(=O)O; Phe(2-Me) = Cc1ccccc1C[C@H](N)C(=O)O; Bta = N[C@@H](Cc1csc2ccccc12)C(=O)O; Hyp = O=C(O)[C@@H]1C[C@@H](O)CN1; NMeF = CN[C@@H](Cc1ccccc1)C(=O)O; X4 = O=C([C@H]1COCCN1[*:1])[*:2]; dHyp = O=C(O)[C@H]1C[C@H](O)CN1; NMeD = CN[C@@H](CC(=O)O)C(=O)O; NMehSer = CN[C@@H](CCO)C(=O)O; NMeNle = CCCC[C@H](NC)C(=O)O; NMeM = CN[C@@H](CCSC)C(=O)O; ξY = NC(Cc1ccc(O)cc1)C(=O)O; NMeA = CN[C@@H](C)C(=O)O; Orn = NCCC[C@H](N)C(=O)O; Dab = NCC[C@H](N)C(=O)O; Dap = NC[C@H](N)C(=O)O; ξP = O=C(O)C1CCCN1; ξC = NC(CS)C(=O)O; Sar = CNCC(=O)O

Experiments:
Human PD-L1/PD-1 = biological target: T1, Human PD-L1/PD-1 (Homo sapiens, UniProt Q9NZQ7); test: HTRF PD-1-Ig/PD-L1-His binding assay (human PD-L1)
T1 construct: made in house; host or cells: HEK293T
T1 sequence (Q9NZQ7 with tags, fused parts or gaps): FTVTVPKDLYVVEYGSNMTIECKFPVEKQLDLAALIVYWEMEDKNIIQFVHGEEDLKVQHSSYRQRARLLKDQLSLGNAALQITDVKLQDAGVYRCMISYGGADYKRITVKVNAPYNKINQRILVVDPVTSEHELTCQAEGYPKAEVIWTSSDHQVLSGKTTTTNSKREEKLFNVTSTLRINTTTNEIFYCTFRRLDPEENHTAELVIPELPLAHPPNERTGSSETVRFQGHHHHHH
Procedure, shortened: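 Soluble PD-1-Ig binding to PD-L1-His measured by HTRF in dPBS with 0.1% BSA and 0.05% Tween-20. Detection used europium cryptate anti-Ig antibody (1 nM final) and APC anti-His antibody (20 nM final) added on top of the binding reaction.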

[1] = biological target: T2, LK35.2-hPD-L1 cells / PE-labeled PD-1-Ig (Homo sapiens, UniProt Q9NZQ7); test: LK35.2-hPD-L1 cell binding high-content screening assay; format: cell-based
T2 construct: expressed in transfected cells; host or cells: LK35.2 mouse B cell line
T2 sequence (Q9NZQ7 19-290): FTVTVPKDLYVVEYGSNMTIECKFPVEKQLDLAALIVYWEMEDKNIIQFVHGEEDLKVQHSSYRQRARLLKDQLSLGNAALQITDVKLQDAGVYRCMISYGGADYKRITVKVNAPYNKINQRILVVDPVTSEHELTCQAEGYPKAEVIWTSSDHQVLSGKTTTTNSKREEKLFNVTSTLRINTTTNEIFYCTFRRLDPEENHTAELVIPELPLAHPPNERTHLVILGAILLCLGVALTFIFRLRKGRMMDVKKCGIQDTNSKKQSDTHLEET
Procedure, shortened: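 Compound effect on PD-1/PD-L1 binding is measured by imaging cell-associated phycoerythrin signal. Human PD-1-Ig (PE on Ig tag, 1 nM final) is applied with compound to a murine B cell line overexpressing human PD-L1 for 1 h at 37 °C in serum-containing RPMI.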

[2] = cluster symbol, read-out: HTRF IC50 cluster
[3] = cell binding assay, cell line not given, cluster symbol, read-out: CBA IC50 cluster
[4] = cluster symbol, cell line of CBA not given (LK35.2-hPD-L1 or 293T-hPD-L1), read-out: CBA IC50 cluster

Structure (SMILES)	IC50 (Human PD-L1/PD-1; [2])	IC50 [1, 3]	IC50 [1, 4]	IC50 (Human PD-L1/PD-1; read-out: HTRF IC50 value)	IC50 ([1]; cell line of CBA not given (LK35.2-hPD-L1 or 293T-hPD-L1), read-out: CBA IC50 value)
CCCC[C@H]1C(=O)N2C[C@@H](O)C[C@@H]2C(=O)N[C@@H](CC(N)=O)C(=O)N[C@@H](C(C)C)C(=O)N(C)[C@@H](Cc2ccccc2)C(=O)N[C@@H](CCCN)C(=O)N2CCOC[C@@H]2C(=O)N[C@@H](Cc2c[nH]c3ccccc23)C(=O)N[C@@H](Cc2ccc(O)cc2)C(=O)N[C@@H](CCCN)C(=O)N[C@H](C(=O)NCC(N)=O)CSCC(=O)N[C@@H](Cc2cc(F)c(F)c(F)c2)C(=O)N(C)[C@@H](Cc2ccccc2)C(=O)N1C [Example 3607] ({CH2CO}-[Phe(3,4,5-F3)][NMeF][NMeNle][dHyp]NV[NMeF][Orn][X4]WY[Orn]CG-NH2; thioether N-13)	0.385 to 6.74 nM	0.158 to 4.71 nM			
CCCC[C@H]1C(=O)N(C)[C@@H](CCCC)C(=O)N[C@@H](CCCNC(=N)N)C(=O)N[C@H](C(=O)NCC(N)=O)CSCC(=O)N[C@@H](Cc2ccc(O)cc2)C(=O)N(C)[C@@H](CC(=O)O)C(=O)N[C@@H](CC(N)=O)C(=O)N2CCC[C@H]2C(=O)N[C@@H](Cc2cnc[nH]2)C(=O)N[C@@H](CC(C)C)C(=O)N2CCC[C@H]2C(=O)N[C@@H](Cc2c[nH]c3ccccc23)C(=O)N[C@@H](CO)C(=O)N[C@@H](Cc2csc3ccccc23)C(=O)N1C [Example 1190] ({CH2CO}-Y[NMeD]NPHLPWS[Bta][NMeNle][NMeNle]RCG-NH2; thioether N-14)	> 30.5 nM		> 74.3 nM		
CCCC[C@H]1C(=O)N(C)CC(=O)N[C@@H](CC(=O)O)C(=O)N[C@@H](C(C)C)C(=O)N(C)[C@@H](Cc2ccccc2)C(=O)N[C@@H](Cc2ccc(O)cc2)C(=O)N(C)CC(=O)N[C@@H](Cc2csc3ccccc23)C(=O)N[C@@H](Cc2ccc(O)cc2)C(=O)N[C@@H](CC(C)C)C(=O)N[C@H](C(=O)NCC(N)=O)CSCC(=O)N[C@@H](Cc2ccc(Cl)cc2)C(=O)N(C)[C@@H](Cc2ccccc2)C(=O)N1C [Example 3115] ({CH2CO}-[Phe(4-Cl)][NMeF][NMeNle][Sar]DV[NMeF]Y[Sar][Bta]YLCG-NH2; thioether N-13)	6.76 to 30.3 nM		4.78 to 72.9 nM		
CCCC[C@H]1C(=O)N(C)CC(=O)N[C@@H](CC(=O)O)C(=O)N[C@@H](C(C)C)C(=O)N(C)[C@@H](Cc2ccccc2)C(=O)N[C@@H](CCC(=O)O)C(=O)N(C)[C@@H](CCC(=O)O)C(=O)N[C@@H](Cc2c[nH]c3ccccc23)C(=O)N[C@@H](Cc2ccc(O)cc2)C(=O)N[C@@H](CCC(=O)O)C(=O)N[C@H](C(=O)NCC(N)=O)CSCC(=O)N[C@@H](Cc2ccccc2)C(=O)N(C)[C@@H](Cc2ccccc2)C(=O)N1C [Example 3075] (HELM PEPTIDE1{[O=C(C[*:3])[*:2]].F.[meF].[CCCC[C@@H](C(=O)[*:2])N(C)[*:1]].[Sar].D.V.[meF].E.[meE].W.Y.E.C.G.[am]}$PEPTIDE1,PEPTIDE1,1:R3-14:R3$$$V2.0)	> 30.5 nM		> 74.3 nM		
CCCC[C@H]1C(=O)N(C)[C@@H](CCCC)C(=O)N[C@@H](CCCNC(=N)N)C(=O)N[C@H](C(=O)NCC(N)=O)CSCC(=O)N[C@@H](Cc2ccccc2)C(=O)N(C)[C@@H](C)C(=O)N[C@@H](CC(C)C)C(=O)N2CCC[C@H]2C(=O)N[C@@H](Cc2cnc[nH]2)C(=O)N[C@@H](CC(C)C)C(=O)N(C)CC(=O)N[C@@H](Cc2c[nH]c3ccccc23)C(=O)N[C@@H](CO)C(=O)N[C@@H](Cc2c[nH]c3ccccc23)C(=O)N1C [Example 1082] ({CH2CO}-F[NMeA]LPHL[Sar]WSW[NMeNle][NMeNle]RCG-NH2; thioether N-14)	> 30.5 nM		> 74.3 nM		
CCCC[C@H]1C(=O)N(C)[C@@H](CCCC)C(=O)N[C@@H](CCCNC(=N)N)C(=O)N[C@H](C(=O)NCC(N)=O)CSCC(=O)N[C@@H](Cc2ccccc2C)C(=O)N(C)[C@@H](C)C(=O)N[C@@H](CC(N)=O)C(=O)N2CCC[C@H]2C(=O)N[C@@H](Cc2cnc[nH]2)C(=O)N[C@@H](CC(C)C)C(=O)N(C)CC(=O)N[C@@H](Cc2c[nH]c3ccccc23)C(=O)N[C@@H](CO)C(=O)N[C@@H](Cc2c[nH]c3ccccc23)C(=O)N1C [Example 1106] ({CH2CO}-[Phe(2-Me)][NMeA]NPHL[Sar]WSW[NMeNle][NMeNle]RCG-NH2; thioether N-14)	6.76 to 30.3 nM		4.78 to 72.9 nM		
CCCC[C@H]1C(=O)N(C)CC(=O)N[C@@H](CC(=O)O)C(=O)N[C@@H](C(C)C)C(=O)N(C)[C@@H](Cc2ccccc2)C(=O)N[C@@H](Cc2ccc(O)cc2)C(=O)N(C)CC(=O)N[C@@H](Cc2c[nH]c3ccccc23)C(=O)N[C@@H](Cc2c(F)c(F)c(F)c(F)c2F)C(=O)N[C@@H](CC(C)C)C(=O)N[C@H](C(=O)NCC(N)=O)CSCC(=O)N[C@@H](Cc2ccccc2)C(=O)N(C)[C@@H](Cc2ccccc2)C(=O)N1C [Example 3080] ({CH2CO}-F[NMeF][NMeNle][Sar]DV[NMeF]Y[Sar]W[Phe(F5)]LCG-NH2; thioether N-13)				> 10000 nM	> 10000 nM
CCCC[C@H]1C(=O)N(C)[C@@H](CCOC)C(=O)N[C@@H](CCCNC(=N)N)C(=O)NC(C(=O)NCC(N)=O)CSCC(=O)N[C@@H](Cc2ccc(O)cc2)C(=O)N(C)[C@@H](C)C(=O)N[C@@H](CC(=O)O)C(=O)N2CCC[C@H]2C(=O)N[C@@H](Cc2cnc[nH]2)C(=O)N[C@@H](CC(C)C)C(=O)N2CCC[C@H]2C(=O)N[C@@H](Cc2c[nH]c3ccccc23)C(=O)N[C@@H](CO)C(=O)N[C@@H](Cc2csc3ccccc23)C(=O)N1C (some centres unmarked) [Example 9008] ({CH2CO}-Y[NMeA]DPHLPWS[Bta][NMeNle][NMehSer](Me)R[ξC]G-NH2; thioether N-14)	0.385 to 6.74 nM	0.158 to 4.71 nM			
CCCC[C@H]1C(=O)N[C@@H](CCCNC(=N)N)C(=O)NC(C(=O)NCC(N)=O)CSCC(=O)N[C@@H](Cc2ccc(O)cc2)C(=O)N(C)[C@@H](C)C(=O)N[C@@H](CC(N)=O)C(=O)N2CCC[C@H]2C(=O)N[C@@H](CO)C(=O)N[C@@H](CC(C)C)C(=O)N2C[C@H](O)C[C@H]2C(=O)N[C@@H](Cc2c[nH]c3ccccc23)C(=O)N[C@@H](CO)C(=O)N[C@@H](Cc2c[nH]c3ccccc23)C(=O)N(C)[C@@H](CCSC)C(=O)N1C (some centres unmarked) [Example 9100] ({CH2CO}-Y[NMeA]NPSL[Hyp]WSW[NMeM][NMeNle]R[ξC]G-NH2; thioether N-14)	0.385 to 6.74 nM	0.158 to 4.71 nM			
CCCC[C@H]1C(=O)N(C)[C@@H](CCCC)C(=O)N[C@@H](CCN)C(=O)N[C@H](C(=O)NCC(N)=O)CSCC(=O)N[C@@H](Cc2ccc(O)cc2)C(=O)N(C)[C@@H](C)C(=O)N[C@@H](CC(N)=O)C(=O)N2CCC[C@H]2C(=O)N[C@@H](Cc2c[nH]cn2)C(=O)N[C@@H](CCC(=O)O)C(=O)N2C[C@H](C3CCCCC3)C[C@H]2C(=O)N[C@@H](Cc2c[nH]c3ccccc23)C(=O)N[C@@H](CCN)C(=O)N[C@@H](Cc2c[nH]c3ccccc23)C(=O)N1C [Example 14005] ({CH2CO}-Y[NMeA]NPHE[Pro(trans-4-cHex)]W[Dab]W[NMeNle][NMeNle][Dab]CG-NH2; thioether N-14)	0.385 to 6.74 nM	0.158 to 4.71 nM			
CCCC[C@H]1C(=O)N(C)[C@@H](CCCC)C(=O)N[C@@H](CCCNC(=N)N)C(=O)NC(C(=O)NCC(N)=O)CSCC(=O)N[C@@H](Cc2ccc(O)cc2)C(=O)N(C)[C@@H](C)C(=O)N[C@@H](CC(N)=O)C(=O)N2CCC[C@H]2C(=O)N[C@@H](CC(N)=O)C(=O)N[C@@H](CC(C)C)C(=O)N2C[C@H](O)C[C@H]2C(=O)N[C@@H](Cc2c[nH]c3ccccc23)C(=O)N[C@@H](CO)C(=O)N[C@@H](Cc2c[nH]c3ccccc23)C(=O)N1C (some centres unmarked) [Example 9061] ({CH2CO}-Y[NMeA]NPNL[Hyp]WSW[NMeNle][NMeNle]R[ξC]G-NH2; thioether N-14)	0.385 to 6.74 nM	0.158 to 4.71 nM			
CCCC[C@H]1C(=O)N(C)CC(=O)N[C@@H](CC(=O)O)C(=O)N[C@@H](C(C)C)C(=O)N(C)[C@@H](Cc2ccccc2)C(=O)N[C@@H](Cc2ccc(CN)cc2)C(=O)N(C)CC(=O)N[C@@H](Cc2csc3ccccc23)C(=O)N[C@@H](Cc2ccc(O)cc2)C(=O)N[C@@H](CC(C)C)C(=O)N[C@H](C(=O)NCC(N)=O)CSCC(=O)N[C@@H](Cc2ccccc2)C(=O)N(C)[C@@H](Cc2ccccc2)C(=O)N1C [Example 3141] ({CH2CO}-F[NMeF][NMeNle][Sar]DV[NMeF][Phe(4-CH2NH2)][Sar][Bta]YLCG-NH2; thioether N-13)	6.76 to 30.3 nM		4.78 to 72.9 nM		
CCCC[C@H]1C(=O)N(C)[C@@H](CCCC)C(=O)N[C@@H](CCCNC(=N)N)C(=O)N[C@H](C(=O)NCC(N)=O)CSCC(=O)NC(Cc2ccc(O)cc2)C(=O)N(C)[C@@H](C)C(=O)N[C@@H](CC(N)=O)C(=O)N2CCCC2C(=O)N[C@@H](CN)C(=O)N[C@@H](CCC(=O)O)C(=O)N2CCC[C@H]2C(=O)N[C@@H](Cc2c[nH]c3ccccc23)C(=O)N[C@@H](CO)C(=O)N[C@@H](Cc2c[nH]c3ccccc23)C(=O)N1C (some centres unmarked) [Example 1091] ({CH2CO}-[ξY][NMeA]N[ξP][Dap]EPWSW[NMeNle][NMeNle]RCG-NH2; thioether N-14)	0.385 to 6.74 nM		0.158 to 4.71 nM		
